#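 Where inhibition never reached the appropriate level, the endpoint shown equals the highest concentration tested. Otherwise, values were interpolated linearly from a five-concentration, 48-hour dose response in 96-well plates. At the GI50, growth is halved.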 Active and inactive are the calls of the source. Rule as the data show it: active = GI50 up to about 1.1 µM and inactive = higher.
# Experiments:
# Test in all cases: NCI anticancer screen, dose series, 48 h
# [1] = test system: MDA-MB-231
# [2] = test system: SR
# [3] = test system: SW-620
# [4] = test system: OVCAR-3
# [5] = test system: MCF7
# [6] = test system: ACHN
# [7] = test system: OVCAR-8
# [8] = test system: T47D
# [9] = test system: HCT-116
# [10] = test system: PC-3
# [11] = test system: HCT-15
# [12] = test system: A498
# [13] = test system: SNB-75
# [14] = test system: Hs-578T
# [15] = test system: K562
# [16] = test system: A549
# [17] = test system: SK-OV-3
# [18] = test system: UO-31
# [19] = test system: SK-MEL-28
# [20] = test system: TK-10
# [21] = test system: SNB-19
# [22] = test system: OVCAR-4
# [23] = test system: HL-60
# [24] = test system: NCI-H460
# [25] = test system: RXF 393
# [26] = test system: SK-MEL-2
# [27] = test system: BT-549
# [28] = test system: DU-145
# [29] = test system: OVCAR-5
# [30] = test system: SF-539
# [31] = test system: NCI-H522
# [32] = test system: SK-MEL-5
# [33] = test system: MDA-MB-435
# [34] = test system: EKVX
# [35] = test system: COLO 205
# [36] = test system: U-251
# [37] = test system: MDA-N
# [38] = test system: SF-295
# [39] = test system: LOX IMVI
# [40] = test system: CAKI-1
# [41] = test system: CCRF-CEM
# [42] = test system: HOP-92
# [43] = test system: Malme-3M
# [44] = test system: NCI/ADR-RES
# [45] = test system: MOLT-4
# [46] = test system: KM12
# [47] = test system: NCI-H226
# [48] = test system: RPMI-8226
# [49] = test system: UACC-62
# [50] = test system: IGROV-1
# [51] = test system: 786-0
# [52] = test system: UACC-257
# [53] = test system: NCI-H23
# [54] = test system: HCC 2998
# [55] = test system: M14
# [56] = test system: HT-29
# [57] = test system: SN12C
# [58] = test system: HOP-62
# [59] = test system: SF-268
compound,measurement,setting,value
C=CCc1cc(C=C(C#N)C#N)cc(OC)c1O,GI50,[1],> 100 µM (inactive)
same,GI50,[2],42.7 µM (inactive)
same,GI50,[3],81.7 µM (inactive)
same,GI50,[4],35.2 µM (inactive)
same,GI50,[5],53.1 µM (inactive)
same,GI50,[6],> 100 µM (inactive)
same,GI50,[7],> 100 µM (inactive)
same,GI50,[8],38.9 µM (inactive)
same,GI50,[9],> 100 µM (inactive)
same,GI50,[10],35.8 µM (inactive)
same,GI50,[11],67.6 µM
same,GI50,[12],> 100 µM (inactive)
same,GI50,[13],55.5 µM (inactive)
same,GI50,[14],> 100 µM (inactive)
same,GI50,[15],62.2 µM (inactive)
same,GI50,[16],> 100 µM (inactive)
same,GI50,[17],> 100 µM (inactive)
same,GI50,[18],> 100 µM (inactive)
same,GI50,[19],> 100 µM (inactive)
same,GI50,[20],> 100 µM (inactive)
same,GI50,[21],> 100 µM (inactive)
same,GI50,[22],> 100 µM (inactive)
same,GI50,[23],28.2 µM (inactive)
same,GI50,[24],> 100 µM (inactive)
same,GI50,[25],24.8 µM (inactive)
same,GI50,[26],> 100 µM (inactive)
same,GI50,[27],90.4 µM (inactive)
same,GI50,[28],> 100 µM (inactive)
same,GI50,[29],> 100 µM (inactive)
same,GI50,[30],> 100 µM (inactive)
same,GI50,[31],90.6 µM (inactive)
same,GI50,[32],27.7 µM (inactive)
same,GI50,[33],59 µM (inactive)
same,GI50,[34],> 100 µM (inactive)
same,GI50,[35],52.6 µM (inactive)
same,GI50,[36],76.2 µM (inactive)
same,GI50,[37],> 100 µM (inactive)
same,GI50,[38],> 100 µM (inactive)
same,GI50,[39],50.2 µM (inactive)
same,GI50,[40],> 100 µM (inactive)
same,GI50,[41],46.9 µM (inactive)
same,GI50,[42],33.5 µM (inactive)
same,GI50,[43],> 100 µM (inactive)
same,GI50,[44],> 100 µM (inactive)
same,GI50,[45],40 µM (inactive)
same,GI50,[46],> 100 µM (inactive)
same,GI50,[47],> 100 µM (inactive)
same,GI50,[48],39.4 µM (inactive)
same,GI50,[49],94.2 µM (inactive)
same,GI50,[50],> 100 µM (inactive)
same,GI50,[51],> 100 µM (inactive)
same,GI50,[52],> 100 µM (inactive)
same,GI50,[53],79.8 µM (inactive)
same,GI50,[54],> 10 µM (inactive)
same,GI50,[55],> 100 µM (inactive)
same,GI50,[56],> 100 µM (inactive)
COC(=O)C1(C#N)C(C)(C)N=C(c2ccccc2)C12CCCCC2 (configuration not stated),GI50,[57],> 100 µM (inactive)
same,GI50,[1],> 100 µM (inactive)
same,GI50,[2],14.7 µM (inactive)
same,GI50,[3],> 100 µM (inactive)
same,GI50,[4],> 100 µM (inactive)
same,GI50,[5],> 100 µM (inactive)
same,GI50,[7],> 100 µM (inactive)
same,GI50,[8],> 100 µM (inactive)
same,GI50,[9],> 100 µM (inactive)
same,GI50,[10],58.7 µM (inactive)
same,GI50,[11],> 100 µM
same,GI50,[12],> 100 µM (inactive)
same,GI50,[14],> 100 µM (inactive)
same,GI50,[15],59.7 µM (inactive)
same,GI50,[16],85.7 µM (inactive)
same,GI50,[17],> 100 µM (inactive)
same,GI50,[18],75.7 µM (inactive)
same,GI50,[19],82 µM (inactive)
same,GI50,[20],> 100 µM (inactive)
same,GI50,[21],> 100 µM (inactive)
same,GI50,[22],> 100 µM (inactive)
same,GI50,[23],45.4 µM (inactive)
same,GI50,[24],> 100 µM (inactive)
same,GI50,[25],> 100 µM (inactive)
same,GI50,[26],> 100 µM (inactive)
same,GI50,[27],> 100 µM (inactive)
same,GI50,[28],> 100 µM (inactive)
same,GI50,[29],> 100 µM (inactive)
same,GI50,[30],> 100 µM (inactive)
same,GI50,[31],> 100 µM (inactive)
same,GI50,[32],> 100 µM (inactive)
same,GI50,[33],> 100 µM (inactive)
same,GI50,[34],> 100 µM (inactive)
same,GI50,[35],> 100 µM (inactive)
same,GI50,[36],> 100 µM (inactive)
same,GI50,[37],> 100 µM (inactive)
same,GI50,[38],56.4 µM (inactive)
same,GI50,[39],> 100 µM (inactive)
same,GI50,[40],> 100 µM (inactive)
same,GI50,[41],> 100 µM (inactive)
same,GI50,[42],53.2 µM (inactive)
same,GI50,[43],> 100 µM (inactive)
same,GI50,[44],> 100 µM (inactive)
same,GI50,[45],45.9 µM (inactive)
same,GI50,[46],> 100 µM (inactive)
same,GI50,[48],63.4 µM (inactive)
same,GI50,[58],> 100 µM (inactive)
same,GI50,[49],76.9 µM (inactive)
same,GI50,[50],> 100 µM (inactive)
same,GI50,[51],> 100 µM (inactive)
same,GI50,[52],> 100 µM (inactive)
same,GI50,[53],> 100 µM (inactive)
same,GI50,[54],> 100 µM (inactive)
same,GI50,[55],> 100 µM (inactive)
same,GI50,[59],> 100 µM (inactive)
same,GI50,[56],> 100 µM (inactive)
